Laboratory results as given in the supplement of paper PMC10307832.

What was measured:
Assay in all cases: relative viability (nuclei count vs DMSO), 5 days (fraction); higher = more cells survive
SK-LU-1 = test system: SK-LU-1
How it was run: (§1)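 Five library-drug doses in √10 steps were combined with a fixed anchor-drug dose, or a single drug was given alone, by pin tool to lung cancer cell lines in 1536-well plates the day after seeding. Nuclei were stained and counted after 5 days. Relative viability is the nuclei count in treated wells over that in vehicle wells, taken as the median of duplicate plates.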

NCI-H1793 = test system: NCI-H1793
How it was run: as §1

CAL-12T = test system: CAL-12T
How it was run: as §1

NCI-H1734 = test system: NCI-H1734
How it was run: as §1

LU99A = test system: LU99A
How it was run: as §1

NCI-H2085 = test system: NCI-H2085
How it was run: as §1

NCI-H460 = test system: NCI-H460
How it was run: as §1

HCC-366 = test system: HCC-366
How it was run: as §1

NCI-H441 = test system: NCI-H441
How it was run: as §1

NCI-H1437 = test system: NCI-H1437
How it was run: as §1

COR-L23 = test system: COR-L23
How it was run: as §1

NCI-H1355 = test system: NCI-H1355
How it was run: as §1

NCI-H1563 = test system: NCI-H1563
How it was run: as §1

NCI-H1651 = test system: NCI-H1651
How it was run: as §1

LOU-NH91 = test system: LOU-NH91
How it was run: as §1

NCI-H838 = test system: NCI-H838
How it was run: as §1

NCI-H2023 = test system: NCI-H2023
How it was run: as §1

NCI-H1975 = test system: NCI-H1975
How it was run: as §1

BEN = test system: BEN
How it was run: as §1

NCI-H358 = test system: NCI-H358
How it was run: as §1

For `CCN(CC)CCCCNc1ncc2cc(-c3cc(OC)cc(OC)c3)c(NC(=O)NC(C)(C)C)nc2n1` + C[C@]1(O)C[C@@H](c2nc(-c3ccc4ccc(-c5ccccc5)nc4c3)c3c(N)nccn32)C1 [Linsitinib] (partner 1 µM), the relative viability (SK-LU-1; first compound 0.01 µM) was 1.24, the relative viability (SK-LU-1; first compound 0.03162 µM) was 1.1 and the relative viability (SK-LU-1; first compound 0.1 µM) was 1.4. It also gave a relative viability (SK-LU-1; first compound 0.3162 µM) of 1.49, a relative viability (SK-LU-1; first compound 1 µM) of 0.988 and a relative viability (NCI-H1793; first compound 0.01 µM) of 1.14. For the same compound, the relative viability (NCI-H1793; first compound 0.1 µM) was 1.02, the relative viability (NCI-H1793; first compound 0.3162 µM) was 1.03 and the relative viability (NCI-H1793; first compound 1 µM) was 0.656. It also gave a relative viability (CAL-12T; first compound 0.01 µM) of 0.873, a relative viability (CAL-12T; first compound 0.03162 µM) of 0.954 and a relative viability (CAL-12T; first compound 0.1 µM) of 0.729. It also gave a relative viability (CAL-12T; first compound 0.3162 µM) of 0.906, a relative viability (CAL-12T; first compound 1 µM) of 0.844 and a relative viability (NCI-H1734; first compound 0.01 µM) of 0.864. The relative viability (NCI-H1734; first compound 0.03162 µM) was 0.923, the relative viability (NCI-H1734; first compound 0.1 µM) was 0.993 and the relative viability (NCI-H1734; first compound 0.3162 µM) was 0.913. The relative viability (NCI-H1734; first compound 1 µM) was 0.835, the relative viability (LU99A; first compound 0.01 µM) was 0.557 and the relative viability (LU99A; first compound 0.03162 µM) was 0.565. The relative viability (LU99A; first compound 0.1 µM) was 0.565, the relative viability (LU99A; first compound 0.3162 µM) was 0.583 and the relative viability (LU99A; first compound 1 µM) was 0.517. For the same compound, the relative viability (NCI-H2085; first compound 0.01 µM) was 0.977, the relative viability (NCI-H2085; first compound 0.03162 µM) was 0.949 and the relative viability (NCI-H2085; first compound 0.1 µM) was 1.07. For the same compound, the relative viability (NCI-H2085; first compound 0.3162 µM) was 0.918, the relative viability (NCI-H2085; first compound 1 µM) was 0.887 and the relative viability (NCI-H460; first compound 0.01 µM) was 1.05. The relative viability (NCI-H460; first compound 0.03162 µM) was 0.985, the relative viability (NCI-H460; first compound 0.1 µM) was 0.868 and the relative viability (NCI-H460; first compound 0.3162 µM) was 1.58. For the same compound, the relative viability (NCI-H460; first compound 1 µM) was 0.293, the relative viability (HCC-366; first compound 0.01 µM) was 0.622 and the relative viability (HCC-366; first compound 0.03162 µM) was 0.706. For the same compound, the relative viability (HCC-366; first compound 0.1 µM) was 0.66, the relative viability (HCC-366; first compound 0.3162 µM) was 0.887 and the relative viability (HCC-366; first compound 1 µM) was 0.505. The relative viability (NCI-H441; first compound 0.01 µM) was 0.626, the relative viability (NCI-H441; first compound 0.03162 µM) was 0.441 and the relative viability (NCI-H441; first compound 0.1 µM) was 0.808. It also gave a relative viability (NCI-H441; first compound 0.3162 µM) of 0.635, a relative viability (NCI-H441; first compound 1 µM) of 0.432 and a relative viability (NCI-H1437; first compound 0.01 µM) of 1.27. For the same compound, the relative viability (NCI-H1437; first compound 0.03162 µM) was 1.05, the relative viability (NCI-H1437; first compound 0.1 µM) was 1.13 and the relative viability (NCI-H1437; first compound 0.3162 µM) was 1.22. For the same compound, the relative viability (NCI-H1437; first compound 1 µM) was 0.817, the relative viability (COR-L23; first compound 0.01 µM) was 1 and the relative viability (COR-L23; first compound 0.03162 µM) was 1.2. The relative viability (COR-L23; first compound 0.1 µM) was 1.15, the relative viability (COR-L23; first compound 0.3162 µM) was 1.09 and the relative viability (COR-L23; first compound 1 µM) was 0.948. It also gave a relative viability (NCI-H1355; first compound 0.01 µM) of 0.861, a relative viability (NCI-H1355; first compound 0.03162 µM) of 0.887 and a relative viability (NCI-H1355; first compound 0.1 µM) of 0.873. For the same compound, the relative viability (NCI-H1355; first compound 0.3162 µM) was 0.898, the relative viability (NCI-H1355; first compound 1 µM) was 0.794 and the relative viability (NCI-H1563; first compound 0.01 µM) was 1.29. For the same compound, the relative viability (NCI-H1563; first compound 0.03162 µM) was 1.34, the relative viability (NCI-H1563; first compound 0.1 µM) was 1.13 and the relative viability (NCI-H1563; first compound 0.3162 µM) was 1.09. The relative viability (NCI-H1563; first compound 1 µM) was 0.889, the relative viability (NCI-H1651; first compound 0.01 µM) was 1.06 and the relative viability (NCI-H1651; first compound 0.03162 µM) was 0.931. For the same compound, the relative viability (NCI-H1651; first compound 0.1 µM) was 1.28, the relative viability (NCI-H1651; first compound 0.3162 µM) was 1.16 and the relative viability (NCI-H1651; first compound 1 µM) was 0.786. For the same compound, the relative viability (LOU-NH91; first compound 0.01 µM) was 0.882, the relative viability (LOU-NH91; first compound 0.03162 µM) was 0.938 and the relative viability (LOU-NH91; first compound 0.1 µM) was 0.968. It also gave a relative viability (LOU-NH91; first compound 0.3162 µM) of 0.996, a relative viability (LOU-NH91; first compound 1 µM) of 0.93 and a relative viability (NCI-H838; first compound 0.01 µM) of 1.13. The relative viability (NCI-H838; first compound 0.03162 µM) was 1, the relative viability (NCI-H838; first compound 0.1 µM) was 1.05 and the relative viability (NCI-H838; first compound 0.3162 µM) was 1.01. It also gave a relative viability (NCI-H838; first compound 1 µM) of 0.603, a relative viability (NCI-H2023; first compound 0.01 µM) of 0.716 and a relative viability (NCI-H2023; first compound 0.03162 µM) of 0.691. It also gave a relative viability (NCI-H2023; first compound 0.1 µM) of 0.636, a relative viability (NCI-H2023; first compound 0.3162 µM) of 0.708 and a relative viability (NCI-H2023; first compound 1 µM) of 0.685. For the same compound, the relative viability (NCI-H1975; first compound 0.01 µM) was 0.976, the relative viability (NCI-H1975; first compound 0.03162 µM) was 0.949 and the relative viability (NCI-H1975; first compound 0.1 µM) was 1.11. The relative viability (NCI-H1975; first compound 0.3162 µM) was 1.01, the relative viability (NCI-H1975; first compound 1 µM) was 0.856 and the relative viability (BEN; first compound 0.01 µM) was 1.11. It also gave a relative viability (BEN; first compound 0.03162 µM) of 0.838, a relative viability (BEN; first compound 0.1 µM) of 0.894 and a relative viability (BEN; first compound 0.3162 µM) of 1.07. For the same compound, the relative viability (BEN; first compound 1 µM) was 0.691, the relative viability (NCI-H358; first compound 0.01 µM) was 0.731 and the relative viability (NCI-H358; first compound 0.03162 µM) was 0.748. It also gave a relative viability (NCI-H358; first compound 0.1 µM) of 0.767, a relative viability (NCI-H358; first compound 0.3162 µM) of 0.859 and a relative viability (NCI-H358; first compound 1 µM) of 0.695.
